Assay [1] has as its target Human CB1R (Cannabanoid receptor 1) (Homo sapiens (Human), UniProt P21554). Kind of assay: CB-1 in vitro cAMP (HTRF) assay in HEK-293 cells. It is filed as cell-based. Conditions: HEK-293 cells stably transfected with human CB1R, 250 nM Forskolin, mean where tested more than once, read-out: CB-1 (HEK_cAMP) EC50. From the text:
(§1) CB1 and CB2 receptors are Gi-coupled GPCR. Activation of CB1 and CB2 receptors results in a decrease in cAMP production. An inverse agonist of the CB1 or CB2 receptor results in the opposite effect, an increase of cAMP production. The principle of this assay is based on HTRF® technology (Homogeneous Time-Resolved Fluorescence). The method is a competitive immunoassay between native cAMP produced by cells and the cAMP labeled with the fluorophore d2. The tracer binding is quantified by a Mab anti-cAMP labeled with Eu3+TBP-NHS Cryptate (supplied as part of the assay kit). The specific signal (i.e. energy transfer) is inversely proportional to the concentration of cAMP in the standard or sample.
(§2) Human CB1R (Cannabanoid receptor 1) was stably transfected in HEK-293 cells (DiscoveRx, cat: 93-0200C1). Human CB2R (Cannabanoid receptor 2) was stably transfected in HEK-293 cells (DiscoveRx, cat: 93-0201C1). Cell cultures were maintained in media: DMEM (Invitrogen Cat#12430-054) supplemented with 10% HI FBS (Invitrogen Cat#16140-071), 1% L-glutamine (Invitrogen Cat#25030-081), 0.2 mg/ml Hygromycin B (Invitrogen Cat#10687-010), 600 μg/mL G418 (Invitrogen Cat#10131-035), and 1× Penn/Strep (Invitrogen 15140-122). After cell expansion, aliquots were cryo-stored in media containing 5% DMSO (Pierce Cat#20684).
(§3) One day prior to experiments media was warmed to 37° C. and the cryo-stored cells were thawed in a 37° C. water bath. The cells were then added to media (10× volume) and the mixture was centrifugated at 1000 RPM for 5 min. The supernate was removed and the cells were re-suspended in media. A sample of the cell suspension was evaluated on a Cedex XS automated cell counter (Innovatis Systems) to determine viable cells/ml. Additional media was added to the cells to achieve a final cell density of 4E5 cells/mL. The cells were then plated into 384 well PDL white solid bottom plates (Greiner, Cat#781945) at 20 μL per well using a Multidrop (Thermo Scientific). Cells were removed from Row P (location of cAMP standards). Two columns of cells were plated into a clear bottom 384 well PDL coated plate (Greiner, Cat#781944) to view confluence the day of the assay. The cell plates were lidded and stored for 15 minutes in a hood, then transferred to an incubator (37° C., 5% CO2, 95% humidity) overnight.
(§4) DMSO was added to all wells of 384 well V bottom polystyrene plate (Greiner, Cat#781280) except to columns 1 and 13, rows O and P and wells M13-M23 and N13-N23. Test compounds (60 μL, 10 mM) were added to Column 1 and 13 (A1 through N1 and A13 through L13). Test compounds were serially diluted 1/3 by transferring and mixing 20 μl sample with 40 μL DMSO.
(§5) DMSO (40 μL) was added to wells of 384 well V bottom polystyrene plate: O2 through O11, M14 through M23, N14 through N23, and O14 through 023. AM630 (also known as [6-iodo-2-methyl-1-[2-(4-morpholinyl)ethyl]-1H-indol-3-yl](4-methoxyphenyl)-methanone, Cayman Chemical, Cat#10006974) (60 μL, 10 mM) was added to 01; and 1-(2,4-dichlorophenyl)-7-[(4-fluorophenyl)methylene]-4,5,6,7-tetrahydro-N-1-piperidinyl-1H-indazole-3-carboxamide (60 μL, 10 mM) was added to N13. The control was serially diluted 1/3 by transferring and mixing 20 μl sample with 40 μL DMSO. This process resulted 11 doses per control, 10 mM to […].
(§6) Cells plated the day prior to the assay in clear bottom plates were viewed on an inverse microscope to ensure confluency in the range of 60-75%. […]

For assay [2], the target named is Human CB2R (Cannabanoid receptor 2) (Homo sapiens (Human), UniProt P34972). Nature of the assay: CB-2 in vitro cAMP (HTRF) assay in HEK-293 cells. It is filed as cell-based. Conditions: HEK-293 cells stably transfected with human CB2R, 250 nM Forskolin, mean where tested more than once, read-out: CB-2 (HEK_cAMP) EC50.
Excerpt: as §1, §2, §3, §4, §5, §6
Background: In TR-FRET formats the signal depends on donor and acceptor labels being close together.

Chain of Human CB1R (Cannabanoid receptor 1) (P21554 whole entry): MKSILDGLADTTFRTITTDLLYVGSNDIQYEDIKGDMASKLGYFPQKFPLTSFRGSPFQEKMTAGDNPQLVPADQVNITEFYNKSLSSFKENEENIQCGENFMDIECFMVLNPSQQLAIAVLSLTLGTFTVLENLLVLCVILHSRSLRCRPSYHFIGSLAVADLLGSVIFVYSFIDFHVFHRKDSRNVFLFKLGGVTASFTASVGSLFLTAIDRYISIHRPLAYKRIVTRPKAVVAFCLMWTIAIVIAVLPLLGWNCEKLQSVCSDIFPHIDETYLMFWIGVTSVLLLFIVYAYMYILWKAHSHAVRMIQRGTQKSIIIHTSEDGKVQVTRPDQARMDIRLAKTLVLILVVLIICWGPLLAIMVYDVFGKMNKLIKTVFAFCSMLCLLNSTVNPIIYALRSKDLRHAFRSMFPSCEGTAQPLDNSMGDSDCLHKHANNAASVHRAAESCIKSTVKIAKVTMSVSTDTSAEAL
Chain of Human CB2R (Cannabanoid receptor 2) (P34972 whole entry): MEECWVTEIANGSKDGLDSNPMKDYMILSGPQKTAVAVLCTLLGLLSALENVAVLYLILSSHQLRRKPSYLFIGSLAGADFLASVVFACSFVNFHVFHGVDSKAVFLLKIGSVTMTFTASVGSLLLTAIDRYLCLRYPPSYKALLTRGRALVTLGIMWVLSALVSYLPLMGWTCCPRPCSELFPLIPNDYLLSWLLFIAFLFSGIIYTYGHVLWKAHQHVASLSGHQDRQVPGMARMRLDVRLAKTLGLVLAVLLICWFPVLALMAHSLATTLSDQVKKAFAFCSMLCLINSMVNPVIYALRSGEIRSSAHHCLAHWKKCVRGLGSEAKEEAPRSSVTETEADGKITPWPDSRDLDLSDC

`CC(c1cccc(C(=O)O)c1)N1CCC(c2n[nH]c3ccc(C(c4ccc(Cl)cc4)c4ccc(Cl)cc4)cc23)C1` (centres unmarked) [Compound 277]: the results for the EC50 in assay [1] and in assay [2] were 1.55 µM and 7 µM, respectively.
Turning to `COC(=O)c1cccc(CN2CCC(c3n[nH]c4ccc(C(c5ccc(Cl)cc5)c5ccc(Cl)cc5)cc34)CC2)c1` [Compound 259], the EC50 (commonly the concentration giving half of the maximal effect) in assay [1] is 0.374 µM; in assay [2], over 42 µM.
The corresponding values for `NC(=O)c1ccc(C(c2ccc(Cl)cc2)c2ccc3[nH]nc(C4CCN(S(=O)(=O)C(F)(F)F)CC4)c3c2)cn1` (centres unmarked) [Compound 253] are 0.011 µM and 6.93 µM.
Take `O=C(O)c1ccc(S(=O)(=O)N2CCC(c3c4cc(C(c5ccc(Cl)cc5)c5ccc(Cl)cc5)ccc4nn3C3CC3)CC2)cc1F` [Compound 200]: the EC50 in assay [1] is 0.624 µM; in assay [2], over 10 µM.
The corresponding values for `O=C(O)c1ccc(CN2CCC(c3n[nH]c4ccc(C(c5ccc(Cl)cc5)c5ccc(Cl)cc5)cc34)CC2)cc1` [Compound 221] are 0.134 µM and over 42 µM.
For the compound `O=C(O)c1cc(S(=O)(=O)N2CCC(c3c4cc(C(c5ccc(Cl)cc5)c5ccc(Cl)cc5)ccc4nn3C3CC3)CC2)ccc1Cl` [Compound 168, 5-(4-(5-(bis(4-chlorophenyl)methyl)-2-cyclopropyl-2H-indazol-3-yl)piperidin-1-ylsulfonyl)-2-chlorobenzoic acid], the 50% effective concentration (EC50) in assay [1] was found to be 0.002 µM; in assay [2], 7.04 µM.
Consider `O=C(O)CS(=O)(=O)N1CCC(c2c3cc(C(c4ccc(Cl)cc4)c4ccc(Cl)cc4)ccc3nn2C2CC2)CC1` [Compound 131], for which the 50% effective concentration (EC50) in assay [1] was 9.5 µM; in assay [2] it was over 10 µM.
For `NC(=O)CS(=O)(=O)N1CCC(c2c3cc(C(c4ccc(Cl)cc4)c4ccc(Cl)cc4)ccc3nn2C2CC2)CC1` [Compound 137] the same measures were 0.158 µM and over 10 µM.
In the case of `O=C(c1nnn[nH]1)N1CCC(c2n[nH]c3ccc(C(c4ccc(Cl)cc4)c4ccc(Cl)cc4)cc23)CC1` [Compound 143], the concentration for a half-maximal effect (EC50) is 1.01 µM in assay [1] and over 10 µM in assay [2].
Consider `NC(=O)Cc1ccc(N2CCC(c3c4cc(C(c5ccc(Cl)cc5)c5ccc(Cl)cc5)ccc4nn3C3CC3)CC2)cc1` [Compound 186], for which the 50% effective concentration (EC50) in assay [1] was 0.059 µM; in assay [2] it was over 10 µM.
Turning to `O=S(=O)(N1CCC(c2c3cc(C(c4ccc(Cl)cc4)c4ccc(Cl)cc4)ccc3nn2C2CC2)CC1)C(F)(F)F` [Compound 136, 5-(bis(4-chlorophenyl)methyl)-2-cyclopropyl-3-(1-(trifluoromethylsulfonyl)piperidin-4-yl)-2H-indazole], the concentration for a half-maximal effect (EC50) was 0.011 µM in assay [1] and over 10 µM in assay [2].
For `NC(=O)c1cccc(S(=O)(=O)N2CCC(c3nn(CCO)c4ccc(C(c5ccc(Cl)cc5)c5ccc(Cl)cc5)cc34)CC2)c1` [Compound 82] the same measures were 0.082 µM and over 10 µM.
Regarding `O=C(O)c1ccccc1S(=O)(=O)N1CCC(c2n[nH]c3ccc(C(c4ccc(Cl)cc4)c4ccc(Cl)cc4)cc23)CC1` [Compound 34], the values for the EC50 in assay [1] and in assay [2] were 6.03 µM and 7.5 µM, respectively.
As to `O=C(O)c1cccc(N2CCC(c3nn(C4CC4)c4ccc(C(c5ccc(Cl)cc5)c5ccc(Cl)cc5)cc34)CC2)c1` [Compound 178], the EC50 in assay [1] is 0.324 µM; in assay [2], over 10 µM.
For the compound `NC(=O)Cc1cccc(N2CCC(c3nn(C4CC4)c4ccc(C(c5ccc(Cl)cc5)c5ccc(Cl)cc5)cc34)CC2)c1` [Compound 190], the figures for the EC50 in assay [1] and in assay [2] were 1.08 µM and over 10 µM, respectively.
In the case of `NC(=O)CCS(=O)(=O)N1CCC(c2c3cc(C(c4ccc(Cl)cc4)c4ccc(Cl)cc4)ccc3nn2C2CC2)CC1` [Compound 134], the results for the EC50 in assay [1] and in assay [2] were 0.216 µM and over 10 µM, respectively.
As to `O=C(O)CCS(=O)(=O)N1CCC(c2nn(C3CC3)c3ccc(C(c4ccc(Cl)cc4)c4ccc(Cl)cc4)cc23)CC1` [Compound 109], the concentration giving a half-maximal response (EC50) in assay [1] was 0.729 µM; in assay [2], over 10 µM.
For `O=C(O)C(=O)N1CCC(c2c3cc(C(c4ccc(Cl)cc4)c4ccc(Cl)cc4)ccc3nn2C2CC2)CC1` [Compound 126], the EC50 in assay [1] was 0.617 µM; in assay [2] it was over 10 µM.
Consider `NS(=O)(=O)c1cccc(C(=O)N2CCC(c3nn(CCO)c4ccc(C(c5ccc(Cl)cc5)c5ccc(Cl)cc5)cc34)CC2)c1` [Compound 71], for which the results for the half-maximal effective concentration (EC50) in assay [1] and in assay [2] were 0.068 µM and over 10 µM, respectively.
Turning to `O=C(O)c1cccc(C(=O)N2CCC(c3nn(C4CC4)c4ccc(C(c5ccc(Cl)cc5)c5ccc(Cl)cc5)cc34)CC2)c1` [Compound 97], the EC50 in assay [1] is 0.478 µM; in assay [2] it was over 10 µM.
For the compound `O=C(O)Cc1cccc(N2CCC(c3n[nH]c4ccc(C(c5ccc(Cl)cc5)c5ccc(Cl)cc5)cc34)CC2)c1` [Compound 214], the concentration for a half-maximal effect (EC50) in assay [1] is 3.24 µM; in assay [2], over 10 µM.
As to `O=C(O)c1ccc(N2CCC(c3n[nH]c4ccc(C(c5ccc(Cl)cc5)c5ccc(Cl)cc5)cc34)CC2)cc1` [Compound 213], the EC50 in assay [1] is 0.367 µM; in assay [2] it was over 10 µM.
Take `Cn1nc(C2CCN(S(=O)(=O)c3ccc(C(=O)O)cc3)CC2)c2cc(C(c3ccc(Cl)cc3)c3ccc(Cl)cc3)ccc21` [Compound 62]: the EC50 in assay [1] was 0.845 µM; in assay [2] it was over 10 µM.
Consider `NC(=O)c1ccccc1S(=O)(=O)N1CCC(c2c3cc(C(c4ccc(Cl)cc4)c4ccc(Cl)cc4)ccc3nn2C2CC2)CC1` [Compound 139], for which the EC50 in assay [1] was 0.202 µM; in assay [2], over 10 µM.
For `O=S(=O)(N1CCC(Nc2n[nH]c3ccc(C(c4ccc(Cl)cc4)c4ccc(Cl)cc4)cc23)CC1)C(F)(F)F` [Compound 77] the same measures were 0.06 µM and over 10 µM.
For `NC(=O)c1ccc(S(=O)(=O)N2CCC(c3c4cc(C(c5ccc(Cl)cc5)c5ccc(Cl)cc5)ccc4nn3C3CC3)CC2)cc1F` [Compound 167, 4-(4-(5-(bis(4-chlorophenyl)methyl)-2-cyclopropyl-2H-indazol-3-yl)piperidin-1-ylsulfonyl)-2-fluorobenzamide], the half-maximal effective concentration (EC50) in assay [1] is 0.012 µM; in assay [2] it was over 10 µM.
With `CC(O)Cn1nc(C2CCN(S(=O)(=O)C(F)(F)F)CC2)c2cc(C(c3ccc(Cl)cc3)c3ccc(Cl)cc3)ccc21` (centres unmarked) [Compound 202], the EC50 in assay [1] is 0.169 µM; in assay [2], over 10 µM.
The corresponding values for `O=C(O)Cc1ccc(N2CCC(c3c4cc(C(c5ccc(Cl)cc5)c5ccc(Cl)cc5)ccc4nn3C3CC3)CC2)cc1` [Compound 203] are 0.053 µM and over 10 µM.
For the compound `NC(=O)Cc1ccc(N2CCC(c3nn(C4CC4)c4ccc(C(c5ccc(Cl)cc5)c5ccc(Cl)cc5)cc34)CC2)cc1` [Compound 182], the 50% effective concentration (EC50) in assay [1] is 0.271 µM; in assay [2] it was over 10 µM.
With `O=C(O)c1ccc(CN2CCC(c3c4cc(C(c5ccc(Cl)cc5)c5ccc(Cl)cc5)ccc4nn3C3CC3)CC2)nc1` [Compound 252], the EC50 in assay [1] is 0.077 µM; in assay [2] it was over 10 µM.
Consider `O=C(O)c1csc(CN2CCC(c3c4cc(C(c5ccc(Cl)cc5)c5ccc(Cl)cc5)ccc4nn3C3CC3)CC2)c1` [Compound 239, 5-((4-(5-(bis(4-chlorophenyl)methyl)-2-cyclopropyl-2H-indazol-3-yl)piperidin-1-yl)methyl)thiophene-3-carboxylic acid], for which the values for the EC50 in assay [1] and in assay [2] were 0.043 µM and over 10 µM, respectively.
